Results reported in PMC3741380, “The N-Terminally Truncated µ3 and µ3-Like Opioid Receptors Are Transcribed from a Novel Promoter Upstream of Exon 2 in the Human OPRM1 Gene” (PLoS ONE, 2013).

Target: T1, hMOR-1 (Homo sapiens, UniProt P35372)
T1 construct: gene OPRM1; classical 7TM splice variant, C-terminal GFP fusion kept (pcDNA3-GFP), stably expressed in HEK 293 cells
Test: cell-based
From the text: inhibition of forskolin-stimulated cAMP accumulation, [3H]-cAMP competition assay on hMOR-1

T1 sequence (P35372 whole entry, the tested form may be a part, canonical isoform): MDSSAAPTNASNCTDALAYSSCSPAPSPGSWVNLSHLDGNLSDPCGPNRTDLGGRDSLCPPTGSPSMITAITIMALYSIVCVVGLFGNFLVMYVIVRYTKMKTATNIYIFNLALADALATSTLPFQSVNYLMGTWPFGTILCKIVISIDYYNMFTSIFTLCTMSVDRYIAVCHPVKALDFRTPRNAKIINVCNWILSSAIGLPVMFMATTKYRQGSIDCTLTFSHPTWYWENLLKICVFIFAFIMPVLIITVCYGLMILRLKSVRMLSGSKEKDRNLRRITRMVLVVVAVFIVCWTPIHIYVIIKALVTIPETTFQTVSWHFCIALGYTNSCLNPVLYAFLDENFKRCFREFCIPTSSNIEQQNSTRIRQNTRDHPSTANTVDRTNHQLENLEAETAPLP

`CN1CC[C@]23c4c5ccc(O)c4O[C@H]2[C@@H](O[C@@H]2O[C@H](C(=O)O)[C@@H](O)[C@H](O)[C@H]2O)C=C[C@H]3[C@H]1C5` [M6G] showed an IC50 of 27.3 ± 11.2 nM.
